According to patent US20090054403A1, “Treatment of Post-Traumatic Stress Disorder” (priority 2007, published 2009):

Key:
body core temperature = assay: Body core temperature during 10 day chronic dosing; conditions: b.i.d. oral: nepicastat 5, 15, 50 mg/kg; SKF-102698 50 mg/kg; clonidine 20 ug/kg; d-amphetamine 2 mg/kg; days 1, 5, 10
Procedure: The effects of chronic dosing of nepicastat were examined. Between three and thirteen days prior to the first dosing day the rats were placed inside the startle apparatus and after a five minute acclimation period they were presented with a 118 dB noise burst on average once a minute (a variable inter-trial interval ranging between 30 and 90 seconds will be used) for 20 minutes. The startle responses were measured and a mean for the last twenty startle response was calculated for each rat.
Rat body core temperatures were obtained by inserting the rectal probe 2 cm into the colon of each rat. Each rat's body core temperature was measured three times and the average of the three reading was calculated. Body core temperature readings were obtained immediately prior to the ten day chronic dosing schedule (to obtain a baseline), and three and half hour after the morning daily dose of nepicastat, and SKF-102698, and 15 minutes prior to the daily administration of clonidine and d-amphetamine, on dosing days one, five and ten. […] Both clonidine (an alpha2 agonist), and d-amphetamine (a dopamine releaser) were used as the positive controls for this assay.
An overall one-way ANOVA with a main effect for treatment was performed at each time on the change from baseline for each animal. Subsequent t-tests were performed for each comparison of interest.

[1] = test system: tissue norepinephrine and dopamine levels; assay: Tissue catecholamines in beagle dogs, 10, 30, 60 mg/kg/day for 4.5 days; format: in vivo
Procedure: This study was performed to determine the dopamine and norepinephrine concentrations in kidney medulla and kidney cortex from dogs dosed with nepicastat. Adult male beagle dogs were randomly assigned to four groups of 8 dogs per group and dosed by oral administration with nepicastat. Nepicastat was delivered in doses of 5, 15 and 30 mg/kg placed in single capsules. Vehicle was an empty capsule. Each dog received 2 doses daily, morning and afternoon (8-10 hours apart) for four days. On the fifth day, each dog received a single dose in the morning and the dogs were euthanized six hours after the last dose. Samples of kidney medulla and kidney cortex were rapidly harvested, weighed, placed in cold 0.4 M perchloric acid, frozen in liquid nitrogen and stored at −70° C.
To quantitate concentrations of norepinephrine (NE) and dopamine (D), each tissue was homogenized by brief sonication in 0.4 M perchloric acid. After sonication, the homogenates were centrifuged at 13,000 rpm in a microfuge for 30 minutes at 4° C. An aliquot of each supernatant was removed and spiked with 3,4-dihydroxybenzylamine (DHBA) as internal standard. The extract from each sample was subjected to HPLC separation using electrochemical detection. The method has a quantitation limit of 2.0 ng/mL and a linear range of 2.0 ng/mL to 400 ng/mL for each analyte.
Nepicastat was weighed and put into capsules (size 13—Torpac; East Hanover, N.J.) to yield doses of 5, 15, and 30 mg/kg per capsule (given b.i.d. to yield doses of 10, 30 and 60 mg/kg/day). The initial dog weight was used to determine the dose for each animal. Dogs receiving 0 mg/kg/day received empty capsules (placebo). All doses of nepicastat were administered as free base equivalents.
Thirty-two male beagle dogs, weighing 10-12 kg, were randomly assigned to one of the following 4 treatment groups (n=8 per group): nepicastat at 0 mg/kg/day (placebo), 10 mg/kg/day (5 mg/kg b.i.d.), 30 mg/kg (15 mg/kg b.i.d.), or 60 mg/kg/day (30 mg/kg b.i.d.). Dog numbers 1-16 were assigned as dose group A and dog numbers 17-32 as dose group B. The terminal surgery for tissue harvest was performed over 2 days with 16 animals studied per day. Two or 3 days before the first compound administration each dog was weighed and skin regions overlying both cephalic, saphenous and jugular veins were shaved. Dosing consisted of oral administration of one capsule with the second given 8-10 hr later. Dogs were dosed as scheduled on days 1-3. On day 4, prior to the AM dose, 3 ml of blood were obtained from a jugular vein for determination of baseline plasma compound levels. The dog was then administered the AM dose, and at 1, 2, 4 and 8 hr following the dose additional 3 ml blood samples were collected for determination of plasma compound levels. Blood samples were put into tubes containing heparin, centrifuged at 4° C. and stored at −20° C. until analysis. The PM dose was then administered as scheduled. The AM dose was administered as scheduled on the days of surgery. Approximately 6 hr after the AM dose, a final 3 ml blood sample was taken from the jugular vein for determination of plasma compound levels. The dog was then anesthetized with pentobarbital Na (˜40 mg/kg), given iv in a cephalic or saphenous vein, and delivered to the necropsy room where an additional dose of pentobarbital Na was given (˜80 mg/kg, iv). The left ventricle, renal artery, kidney, renal medulla, renal cortex and cerebral cortex were then rapidly harvested, weighed, put into 2 ml iced 0.4M perchloric acid, frozen in liquid nitrogen and stored at −70° C. until analysis for catecholamines by HPLC using electrochemical detection. All tissue samples were divided into 2 portions, the second of which were immediately frozen in liquid nitrogen and stored at −70° C. for determination of tissue compound levels. A third transmural sample taken from the left ventricle was immediately frozen in liquid nitrogen and stored at −70° C. for use in receptor binding studies. […]

plasma renin activity = assay: Plasma renin activity after 5 days oral dosing; format: in vivo, SHR; conditions: 30 and 100 mg/kg/d p.o. for 5 days
[2] = test system: dopamine/norepinephrine ratio; assay: Dose response of tissue dopamine/norepinephrine ratio 6 hours after a single oral dose; format: in vivo, SHR
[3] = 60 mg/kg/day, marginal (0.05<p<0.10)

Fc1cc(F)cc(Cn2cc[nH]c2=S)c1 [SKF 102698, reference compound]
body core temperature (body core temperature): Lack of Effect

Cl.NCc1c[nH]c(=S)n1[C@H]1CCc2c(F)cc(F)cc2C1 [nepicastat, (S)-5-Aminomethyl-1-(5,7-difluoro-1,2,3,4-tetrahydronaphth-2-yl)-2,3-dihydro-2-thioxo-1H-imidazole hydrochloride]
decrease in norepinephrine, left ventricle ([1]; 10 mg/kg/day): 85% | decrease in norepinephrine, renal artery ([1]; 10 mg/kg/day): 86% | decrease in norepinephrine, renal cortex ([1]; 10 mg/kg/day): 86% | decrease in norepinephrine, renal medulla ([1]; 10 mg/kg/day): 72% | increase in dopamine, cerebral cortex ([1]; 10 mg/kg/day): 632% | increase in dopamine, renal artery ([1]; 10 mg/kg/day): 180% | increase in dopamine, renal cortex ([1]; 10 mg/kg/day): 156% | increase in dopamine/norepinephrine ratio, cerebral cortex ([1]; 10 mg/kg/day): 531% | increase in dopamine/norepinephrine ratio, left ventricle ([1]; 10 mg/kg/day): 852% | increase in dopamine/norepinephrine ratio, renal artery ([1]; 10 mg/kg/day): 1711% | increase in dopamine/norepinephrine ratio, renal cortex ([1]; 10 mg/kg/day): 1653% | increase in dopamine/norepinephrine ratio, renal medulla ([1]; 10 mg/kg/day): 555% | increase in dopamine, renal medulla ([1]; 10 mg/kg/day, marginal (0.05<p<0.10)): 150% | decrease in norepinephrine, left ventricle ([1]; 30 mg/kg/day): 58% | decrease in norepinephrine, renal artery ([1]; 30 mg/kg/day): 81% | decrease in norepinephrine, renal cortex ([1]; 30 mg/kg/day): 66% | increase in dopamine, renal artery ([1]; 30 mg/kg/day): 273% | increase in dopamine, renal cortex ([1]; 30 mg/kg/day): 502% | increase in dopamine, renal medulla ([1]; 30 mg/kg/day): 522% | increase in dopamine/norepinephrine ratio, cerebral cortex ([1]; 30 mg/kg/day): 86% | increase in dopamine/norepinephrine ratio, left ventricle ([1]; 30 mg/kg/day): 279% | increase in dopamine/norepinephrine ratio, renal artery ([1]; 30 mg/kg/day): 1767% | increase in dopamine/norepinephrine ratio, renal cortex ([1]; 30 mg/kg/day): 1440% | increase in dopamine/norepinephrine ratio, renal medulla ([1]; 30 mg/kg/day): 636% | reduction in norepinephrine, cerebral cortex ([1]; 30 mg/kg/day): 63% | increase in dopamine, cerebral cortex ([1]; 30 mg/kg/day, marginal (0.05<p<0.10)): 174% | decrease in norepinephrine, left ventricle ([1]; 60 mg/kg/day): 79% | decrease in norepinephrine, renal artery ([1]; 60 mg/kg/day): 85% | decrease in norepinephrine, renal cortex ([1]; 60 mg/kg/day): 85% | increase in dopamine, cerebral cortex ([1]; 60 mg/kg/day): 411% | increase in dopamine, renal artery ([1]; 60 mg/kg/day): 268% | increase in dopamine, renal cortex ([1]; 60 mg/kg/day): 208% | increase in dopamine/norepinephrine ratio, cerebral cortex ([1]; 60 mg/kg/day): 612% | increase in dopamine/norepinephrine ratio, left ventricle ([1]; 60 mg/kg/day): 607% | increase in dopamine/norepinephrine ratio, renal artery ([1]; 60 mg/kg/day): 1944% | increase in dopamine/norepinephrine ratio, renal cortex ([1]; 60 mg/kg/day): 1693% | increase in dopamine/norepinephrine ratio, renal medulla ([1]; 60 mg/kg/day): 677% | decrease in norepinephrine, renal medulla [1, 3]: 69% | increase in dopamine, renal medulla [1, 3]: 156% | dopamine levels, left ventricle ([1]; 10, 30 and 60 mg/kg/day): No significant changes | norepinephrine levels, cerebral cortex ([1]; 10 and 60 mg/kg/day): not significantly (p>0.01) affected | plasma renin activity (plasma renin activity): did not alter plasma renin activity | dose with significant change in dopamine/norepinephrine ratio, cerebral cortex [2]: 10 mg/kg | dose with significant change in dopamine/norepinephrine ratio, left ventricle [2]: 3.0 mg/kg | dose with significant change in dopamine/norepinephrine ratio, mesenteric artery [2]: 0.3 mg/kg
